Assays:
p90-RSK = assay: Protein kinase expression in Caki-1 whole cell lysates, p90-RSK; type: cell-based, human; settings: Caki-1, 5 μM, by 12 hours post-treatment
Procedure: (§1) Whole cell lysates of Caki-1 cells treated with compounds 2 or 6 were also evaluated for their effects on the expression levels of selected protein kinases, namely p90-RSK, AKT and MAPKAPK3. […] Because all three enzymes have been implicated in promoting cell migration and therefore are strong targets for anti-metastasis drugs, these findings predict that compound 2 would be effective in controlling metastatic potential of renal tumors.
(§2) Cell lysis and immunoblotting: Caki-1 cells were seeded into 10-cm dishes at a density of 2.2×10^6 and incubated for 24 hours. […]
(§3) The protein concentration was determined with BCA protein dye reagent (Pierce, Fisher Scientific Pittsburgh, Pa.). Samples were denatured with 5×SDS sample buffer (0.25% bromophenol blue, 0.5 M dithiothreitol (DTT), 50% glycerol 50% (v/v), 10% sodium dodecyl sulfate (SDS) followed by heating at 95° C. for 5 minutes. Proteins were separated by SDS-PAGE, transferred to a PVDF membrane (Millipore Corp.), and probed with MAPKAPK-3 antibody (Cell Signaling Technology, Danvers, Mass., USA), as well as β-actin antibody (Cell Signaling Technology, Danvers, Mass., USA). Immunoreactive bands of primary antibodies were detected using HRP goat anti-rabbit and secondary antibodies were detected with peroxidase-conjugated secondary antibody and detected by chemiluminescence (Pierce Biotechnology, Rockford, Ill.).

[1] = Solubility in DMSO/aqueous mixtures; type: physicochemical; settings: at micromolar concentrations
Text: Both compound 2 and compound 3 were less acidic than titanocene dichloride and were soluble in DMSO/water, DMSO/PBS and DMSO/media (1:99) mixtures at micromolar concentrations. These compounds were unusually stable methyl-containing titanocene moieties that were stable as solids at room temperature, while exposed to air in CDCl3 solution for at least five days.

Caki-1 renal carcinoma = assay: Caki-1 xenografts in mice, tumor growth
Procedure: Study of the effects of 2 in Caki-1 xenografts in mice: twelve female NOD.CB17-Prkdc scid/J (non-obese diabetic—severe combined immunodeficiency) from Jackson Laboratory (Bar Harbor, Me. and Sacramento, Calif., USA) were used for the xenograft experiment (ages 8 to 12 weeks and weighing 19-22 g) were used. Each mouse received 8×10^6 tumor cells subcutaneously without anesthesia. Exponentially growing Caki-1 human kidney cancer cells were suspended in 1:1 ratio 50 μl phosphate-buffered saline (PBS; pH 7.4) plus 50 μl of matrigel (BD Biosciences, San Jose, Calif., USA) were injected subcutaneously on both left and right flank of each mice. The diameter of the tumors was measured once weekly using an electronic digital caliper and the tumor volume (TV) was calculated according to the empirical equation TV=(a)(b^2)×π/6 where a=longest dimension; b=largest dimension orthogonal to a. The median volumes of each group were normalized to the initial tumor volume resulting in the relative tumor volume. […] Treatment started when tumors were palpable (about 6 mm diameter). Mice were randomized to treatment groups based on their starting tumor burden at twelve weeks of age to ensure equivalent distribution between the three groups. At trial end-point the mice were sacrificed and tumors measured again after excision and then processed for further analysis. Histological as well as biochemical evaluations of blood, liver, spleen, and kidney, were conducted.

[2] = Pharmacokinetics in blood/plasma (ICP-MS, gold content)
Procedure: Blood was collected by retro-orbital bleeding into heparinized blood collection vials on ice at time intervals of 30 minutes, 2 hours, 6 hours, 24 hours, and 48 hours after the first dose.
Gold and titanium content was determined using ICP-MS. […] The mixture was heated at 90° C. for 5 hours. After cooling, the samples were diluted with water, 40 ppb of Indium internal standard was added and analyzed in a Thermo Scientific XSERIES 2 ICP-MS with ESI PC3 Peltier cooled spray chamber with SC-FAST injection loop and SC-4 autosampler. All the elements were analyzed using He/H2 collision-reaction mode. Plasma from control mice was spiked with the test compounds to determine the extraction efficiency of gold and titanium.
Pharmacokinetic estimates were obtained from the plasma concentration-time profiles by non-compartmental analysis.

Caki-1 cells = assay: Annexin V/PI apoptosis assay; type: cell-based, human; settings: Caki-1, 6 hours incubation, 10 μM
Procedure: To gain insight concerning the type of cell death that is induced in cancer cell lines, apoptosis assays were performed with Caki-1 cells with compound 2 dissolved in 1% DMSO solution in media. A 1% solution in media (FIG. 7) and staurosporine (FIG. 8) were used as controls. In early stages of apoptosis, one of the significant biochemical features is loss of plasma membrane phospholipid asymmetry due to translocation of phosphatidylserine (PS) from cytoplasmic to extracellular side. This characteristic allows detection of externalized PS by the specific binding of Annexin V (FITC-conjugated). Initiation of cell death will eventually result in the permeabilization of the cell membrane, allowing Pi to stain DNA within the nucleus. […] After incubation during 6 hours with 10 μM of compound 2 necrosis can be clearly proposed.
Annexin V/PI assay: Confluent Caki-1 cells were treated with either […], 0.1% DMSO or 5 μM of staurosporine for 6 h. […] Stained cells were analyzed by flow cytometry using Accuri C6 software (BD Biosciences, San Jose, Calif., USA).

AKT = assay: Protein kinase expression in Caki-1 whole cell lysates, AKT; type: cell-based, human; settings: Caki-1, 5 μM, by 12 hours post-treatment
Procedure: as §1, §2, §3

[3] = end of the study
Procedure: At the end of the study, liver, kidney and tumor of the animals were harvested, weighed and transferred into glass vials. One ml of water was added to each samples and subjected to ultrasonic tissue disruption at 15 W power for 1 minute. The tissue homogenates were frozen at −80° C. for two hours and lyophilized. The lyophilized product was heated at 90° C. with the concentrated acid mix (described above) for five hours, cooled, diluted with water and analyzed for titanium and gold by ICP-MS.

Substance: [(η-C5H5)2TiMe(μ-mba)Au(PPh3)] [Compound 2]
- expression of p90-RSK (p90-RSK): dramatic decreases in expression
- solubility in DMSO/water, DMSO/PBS and DMSO/media (1:99) mixtures [1]: soluble
- decrease in tumor size (shrinkage) from the starting volume (Caki-1 renal carcinoma; between day 1 and day 28 of treatment, total of 14 doses): 67%
- Primary Tumor (Caki-1 renal carcinoma; tumor measured on day 28, after 14th dose, every other day dosing (compound 6 […], compound 2 3 mg/kg)): 41.33 ± 13.00 mm^3
- weight loss in treated mice (Caki-1 renal carcinoma; xenograft protocol, 14 doses every other day): no weight loss
- blood concentration at the time of the second dose ([2]; 48 hours after the first dose, 3 mg/kg): 40400 ± 6000 ng/mL
- absorption into blood ([2]; blood levels up to twenty-four hours): slow absorption
- type of cell death induced (Caki-1 cells): necrosis
- expression of AKT (AKT): dramatic decreases in expression
- accumulation in liver and kidney [3]: accumulated in the liver and kidney to a more significant degree
